Experiments:
[1] = system: neurogenesis genes in the hippocampus of mice; test: Neurogenesis and neural stem cell RT-PCR array on hippocampus of mice subjected to forced swimming stress; type: in vivo
Text: Two-month-old male C57BU6J mice (The Jackson Laboratory, Bar Harbor, Me.), weighing 25-30 g were maintained on a 12-hours light/dark cycle (light on at 07:00) with ad libitum access to food and water and maintained at a regulated temperature of 25±1″C. Upon arrival mice were group-housed and acclimated for 7 days before any intervention.
Mice were randomly divided into three groups as follows: group 1 controls that were not exposed to stress (NES) and treated with vehicle (phosphate buffered saline, PBS); group 2 controls subjected to forced swimming stress (FSB) and treated with vehicle; group 3 subjected to forced swimming stress and treated with cotinine (FSA).
Cotinine ((5S)-1-methyl-5-(3-pyridyl) pyrrolidin-2-one; Sigma-Aldrich Corporation, St. Louis, Mo., USA) solutions were prepared by dissolving the powdered compound in sterile phosphate buffered saline (PBS), and vehicle (PBS). Mice were treated with vehicle or cotinine (5 mg/kg) via gavage. […] All investigators were blind to treatment groups and doses were chosen based on previously studies (Zeitlin, et al., (2012) Cotinine enhances the extinction of contextual fear memory and reduces anxiety after fear conditioning. Behav Brain Res, 228, 284-293.). Treatments were administered for 7 days before the induction of stress. For all animals, treatment continued from the onset of treatment until euthanasia.
To induce chronic stress, mice were subjected to repetitive forced swimming (FS) for six consecutive days, for six minutes each day, as described previously (Furukawa-Hibi, et al., (2011) The hydrophobic dipeptide Leu-lie inhibits immobility induced by repeated forced swimming via the induction of BDNF. Behav Brain Res. 2011 Jul. 7; 220(2):271-280). Each mouse was placed in an inescapable transparent plastic cylinder (40 centimeters (cm) high×20 cm in diameter) filled with water to a depth of 30 cm, for six minutes. Water temperature was maintained at 24-25° C. and water was changed between all trials. In all cases, following exposure, animals were retrieved, dried with a hand towel and returned to their home cages. Mice assigned to NES control group were removed from the animal housing facility and taken to the behavioral testing room during the same period of time than FS mice, but remained in their home cages during the FS period. In all experiments, no mice needed assistance to avoid drowning.
Following behavioral experimentation, euthanasia was performed via cervical dislocation under anesthesia with isofluorane (4% induction, 2% maintenance) by investigators not assigned to prior work with the mice blinded to the treatments. Whole brains were collected and immediately stored frozen at −80° C.
The hippocampi were dissected on ice and placed into RNAlater tubes (Life Technologies; Thermo Fisher Scientific, Waltham, Mass.). RNAlater is a proprietary solution which protects RNA in tissue samples from degradation to allow for analysis at a later date. RNase free conditions were created and maintained throughout the procedure by washing labware in a 0.1% DEPC solution followed by rinsing with RNase free water. Total RNA extraction and purification was performed using RNeasy Lipid Tissue Extraction Kit (Qiagen N.V., Venlon NL). Sample homogenization was performed using Kontes Pellet Pestle Cordless Motor and/or 20 gauge needle and syringe. Samples were extracted using a Qiazol/Chloroform extraction. The samples were purified on an RNeasy spin column using multiple washes. An on-column DNase incubation was performed in order to remove contaminating DNA. The entire extraction and purification step was performed twice to remove all contaminating DNA for samples ran on the neurogenesis arrays. Samples were eluted in RNase free water.
Nucleic acid quantification was performed on the RNA, to determine how many microliters of sample to add to the cDNA reaction, as the reaction requires a specific concentration of RNA to achieve optimal results. […]

[2] = Porsolt's forced swim test, depressive-like behavior in rats subjected to CMF chemotherapy; type: in vivo, Wistar female rats; settings: cotinine 5 mg/kg oral
Experimental: Wistar female rats (2-4 months of age, 200-300 g) (n=10/group) were obtained from Harlan laboratories. Rats were housed in pairs, kept at 12 h light/12 h dark cycle and maintained in an air-conditioned room at a temperature of 21±1° C. and relative humidity of 60±10%. Food and water were available ad libitum. All rats were acclimated to the Veterinary Medical Unit for 1 week and handled daily. Weight was recorded every 2 days to assess for dehydration induced by the chemotherapy regime. […]
This task was chosen to determine the effect of cotinine on depressive-like behavior is one of the more broadly used to assess potential antidepressant effects of drugs (Porsolt R D, Bertin A, Jalfre M (1977) Behavioral despair in mice: a primary screening test for antidepressants. Arch Int Pharmacodyn Ther 229(2):327-336; Castagne V, Moser P, Roux S, Porsolt R D (2010) Rodent models of depression: forced swim and tail suspension behavioral despair tests in rats and mice. Curr Protoc Neurosci 49:5.8.1-5.8.14). […] The freezing behavior, during 6-min trials, was recorded on video and scored by investigators blinded to the treatment arms. The immobility (freezing) time was recorded during a 6-min forced swim (FS) trial. […] The time in seconds (sec) spent by the mice immobile was scored by two investigators blind to the mice's treatments. […]

[3] = administered in the drinking water for 78 weeks; rats initiated with FANFT; cited from earlier work
[4] = stressed mice treated with cotinine compared to stressed mice treated with vehicle

Structure (SMILES): CN1C(=O)CC[C@H]1c1cccnc1 [cotinine, (5S)-1-methyl-5-(3-pyridyl) pyrrolidin-2-one]
- decrease in share of down-regulated neurogenesis genes ([1]; FSA versus stressed vehicle-treated, each compared to non-stressed mice): 17%
- neurogenesis genes down-regulated ([1]; forced swimming stress + cotinine (FSA) compared to mice not exposed to stress): 56%
- neurogenesis genes analyzed that were up regulated ([1]; hippocampi from cotinine-treated stressed mice compared to vehicle-treated stressed mice): 67%
- VEGFa mRNA expression, RT-PCR assay ([1]; hippocampus of cotinine-treated FS mice compared to vehicle-treated FS mice (p<0.01)): up-regulated
- number of neurogenesis genes with differential regulation ([1]; results from all three comparisons, 1.3-fold cut-off with opposite effect by cotinine): 15 genes
- Errb2 expression up regulation ([1]; stressed mice treated with cotinine compared to stress control mice): 1.3 fold
- Artn expression up regulation [1, 4]: 1.2 fold
- EGF expression up regulation [1, 4]: 1.5 fold
- Gdnf expression up regulation [1, 4]: 2.0 fold
- VEGFa expression up regulation [1, 4]: 1.3 fold
- depressive-like behavior (immobility), chemotherapy-treated vs chemotherapy and cotinine-treated ([2]; CMF-treated rats, p<0.01): significant reduction
- depressive-like behavior (immobility), vehicle-treated vs cotinine-treated ([2]; rats without chemotherapy, p<0.001): significant reduction
- carcinogenicity / promotion of urinary bladder tumors [3]: neither carcinogenic nor promoted urinary bladder tumors

Source: patent US10307411B2, “Use of cotinine in treating or preventing neurogenesis deficits and enhancing neurogenesis” (Department of Veterans Affairs, priority 2014, dated 2019)
